In patent publication US8030452B2, “IFBM'S to promote the specific attachment of target analytes to the surface of orthopedic implants” (priority 2004, dated 2011):

What was measured:
[1] = molecular target: BMP on collagen sponge (Homo sapiens, UniProt P12643)
Procedure: To each well, a 2/16″ diameter collagen sponge (Medtronic) was added. The collagen and peptide solutions were allowed to incubate for 1.5 hours at room temperature. Sponges were then rinsed three times with 200 μL Medtronic buffer at 2200 rpm for 1 minute. To each sponge, a primary antibody directed at BMP (diluted 1:1000; R&D Systems #MAB3552) was added for 1 hour at room temperature. A secondary antibody conjugated to alkaline phosphatase (1:5000) was then incubated in the system for 0.5 hour at room temperature.

[2] = molecular target: T1, BMP-2 (Homo sapiens, UniProt P12643); assay: Binding of biotinylated peptides to BMP-2 (FIG. 12); conditions: biotinylated peptide
T1 construct: purchased Medtronic
T1 sequence (P12643 283-396): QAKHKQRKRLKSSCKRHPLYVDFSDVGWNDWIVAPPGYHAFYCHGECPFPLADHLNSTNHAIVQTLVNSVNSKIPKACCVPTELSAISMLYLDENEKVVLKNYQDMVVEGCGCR
Procedure: Briefly, peptide stock solutions were made by dissolving the powder in 100% DMSO to make a 10 mM solution of peptide, water was then added for a final stock concentration of peptide of 1 mM in 10% DMSO. Serial dilutions of the peptide were made in PBS-T. A dilution series of BMP-2 with concentrations ranging from 100 nM to 0.1 nM was immobilized onto the wells of microtiter plates (Immulon-4® HBX from Dynex Technologies, Chantilly, Va.) and blocked with 1% BSA. […] The […] were washed 3 times with PBS-T. Streptavidin-alkaline phosphatase (SA-AP) from USB (United States Biochemical, catalog #11687) was added (1:1000 in PBS-T) and incubated 1 hour at room temperature with shaking. The plates were washed 3 times with PBS-T and the amount of peptide:SA-AP was determined by adding PNPP (Sigma-Aldrich, Inc., SigmaFast tablets, catalog #N1891) and allowing the color to develop for about 10 minutes.
To confirm these BMP binding results, the peptides were also tested in an alternate assay format in which the peptide and BMP2 were allowed to bind in solution and then assayed. Briefly, the peptides were synthesized with a biotin group attached to the ε amino group of a lysine residue at the C-terminus of the peptide. […] The plates were washed with TBS-Tween™ 20 and the antibody binding was detected using the chromogenic AP substrate pNPP. […]

[3] = molecular target: T2, BMP-4 (Homo sapiens, UniProt P12644); assay: Binding of biotinylated peptides to BMP-4 (FIG. 12); conditions: biotinylated peptide
T2 sequence (P12644 293-408): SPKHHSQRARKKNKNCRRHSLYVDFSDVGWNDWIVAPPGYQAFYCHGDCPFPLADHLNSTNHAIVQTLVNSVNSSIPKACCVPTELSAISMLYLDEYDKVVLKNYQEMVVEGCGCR

[4] = molecular target: T3, BMP-7 (Homo sapiens, UniProt P18075); assay: Binding of biotinylated peptides to BMP-7 (FIG. 12); conditions: biotinylated peptide
T3 sequence (P18075 293-431): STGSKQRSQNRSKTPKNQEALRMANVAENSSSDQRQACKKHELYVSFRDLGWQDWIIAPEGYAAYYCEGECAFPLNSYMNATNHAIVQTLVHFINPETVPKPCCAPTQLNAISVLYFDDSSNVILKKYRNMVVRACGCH

[5] = for binding to titanium: FIG. 3; for EC50: read-out: [peptide] ½ maximal signal (relative affinity for titanium), biotin-conjugated peptide, titanium beads, 1 hour room temperature, absorbance 405 nm
Procedure: AFF6007 and AFF6010 were prepared at 200 μM.
Beads were washed two times with PBS/Tween™ 20.

DVNSIWMSRVIEWTYDSGSSGKSRSSDSAFSSFSALEGSVVSR-NH2 [AFF7008]
BMP retained on collagen sponge [1]: increase the amount of BMP on the sponge when compared to no IFBM, but to a lesser extent than AFF7010

DVNSIWMSRVIEWTYDSGSSGKSSDWGVVASAWDAFEALDASR-NH2 [AFF7017]
BMP retained on collagen sponge [1]: increase the amount of BMP on the sponge when compared to no IFBM, but to a lesser extent than AFF7010

DVNSIWMSRVIEWTYDSGSSGKSSFEPLRFPLKGVPVSR-NH2 [AFF7006]
amount of BMP-2 retained on collagen with increasing IFBM concentration [1]: leads to a larger amount of BMP-2 that is retained on the collagen

DVNSIWMSRVIEWTYDSGSSGKSSSVDLYFPLKGDVVSR-NH2 [AFF7010]
BMP retained on collagen sponge [1]: retains more BMP on the sponge than the sponges without IFBM
amount of BMP-2 retained on collagen with increasing IFBM concentration [1]: leads to a larger amount of BMP-2 that is retained on the collagen

SRGGEAAAGAWVSFSALESSR [compound 2007]
binding to BMP-2 [2]: bound
binding to BMP-4 [3]: bound
binding to BMP-7 [4]: bound

SSDWGVVASAWDAFEALDASR [compound 2011]
binding to BMP-2 [2]: bound
binding to BMP-4 [3]: bound
binding to BMP-7 [4]: bound

SSFEPLRFPLKGVPVSRGSSGKDVNSIWMSRVIEWTYDS-NH2 [AFF7005]
amount of BMP-2 retained on collagen with increasing IFBM concentration [1]: leads to a larger amount of BMP-2 that is retained on the collagen

SSSDKCHKHWYCYESKYGGSGSSGK [AFF6007]
binding to titanium [5]: bind to titanium
EC50 [5]: 0.35 µM

SSSDKSHKHWYSYESKYGGSGSSGK [AFF6010]
decrease of affinity for titanium on elimination of the cysteine residues of AFF6007 ([5]; AFF6010 versus AFF6007): about 10 fold
binding to titanium [5]: bind to titanium
EC50 [5]: 3 µM

SSSVDLYFPLKGDVVSRGSSGKDVNSIWMSRVIEWTYDS-NH2 [AFF7009]
amount of BMP-2 retained on collagen with increasing IFBM concentration [1]: leads to a larger amount of BMP-2 that is retained on the collagen
